Measured values taken from patent US5478816A, “Liquid vitamin formulations containing vitamin D esters” (Bristol-Myers Squibb Company, priority 1993, dated 1995).
Where “and” joins values, the source holds several entries; their conditions need not be identical. Equal values may be shown once.

Test: Short-term stability of vitamin D3 and vitamin D3 palmitate in liquid vitamin formulations at 40° C. (HPLC assay)
Assay type: physicochemical
Conditions: for Vitamin D content on storage: 40° C.
Method: In addition to the above, the vitamin formulation contains flavorants, stabilizer of vitamins, and about 1.0% polysorbate 80 as surfactant. As appreciated by the skilled artisan, appropriate overages of vitamins are included in order to assure meeting the label claims. The example composition contains 1.86:1 ratio by weight of glycerine to water. The pH is 5.0 which is adjusted by using an appropriate ratio of ascorbic acid to sodium ascorbate.
Vitamin D was analyzed by a HPLC assay as described by Matthew G. Sliva, et al., "Reversed-Phase Liquid Chromatographic Determination of Vitamin D in Infant Formulas and Enteral Nutritionals," J Assoc. Off. Anal. Chem., 75, 566, 1992, except that saponification conditions of 70° C. for 40 minutes were employed.
Stability of vitamins D3 and D3 palmitate were compared in various vitamin formulations containing different amounts of water and glycerin and at different pHs. The other ingredients and method of pH adjustment were as described in Example 1. The results are in Tables 2-5. Each batch number represents a different liquid vitamin formulation. The amount of glycerin varied between 650 and 850 mg/ml, depending upon the amount of water. "Vit" represents vitamin, "Desc." represents description,"Vit D3" represents vitamin D3, and "Vit D3P" or "D3 P" represents vitamin D3 palmitate. Table 1 lists the half-life (T50) values, i.e., time to degrade to 50% of the starting concentration of vitamins D3 and D3 palmitate at 40° C., These T50 values were calculated by fitting the data to first order degradation rate.

C=C1CC[C@H](OC(=O)CCCCCCCCCCCCCCC)C/C1=C/C=C1\CCC[C@]2(C)[C@@H]([C@H](C)CCCC(C)C)CC[C@@H]12 [Vitamin D3 P, vitamin D3 palmitate]
half-life (liquid vitamin formulation, pH 5.6, Time in Weeks for 50% Degradation (T50)): 113 days
Vitamin D content on storage (pH 3.2, 252 mg/ml water, age 0 weeks, Batch #1 (D3), #2 (D3 P)): 810 IU/ml
Vitamin D content on storage (pH 3.2, 252 mg/ml water, age 2 weeks, Batch #1 (D3), #2 (D3 P)): 715 IU/ml and 717 IU/ml
Vitamin D content on storage (pH 3.2, 252 mg/ml water, age 4 weeks, Batch #1 (D3), #2 (D3 P)): 668 IU/ml
Vitamin D content on storage (pH 3.2, 252 mg/ml water, age 6 weeks, Batch #1 (D3), #2 (D3 P)): 598 IU/ml and 612 IU/ml
Vitamin D content on storage (pH 3.2, 252 mg/ml water, age 8 weeks, Batch #1 (D3), #2 (D3 P)): 544 IU/ml and 574 IU/ml
Vitamin D content on storage (pH 3.2, 252 mg/ml water, age 12 weeks, Batch #1 (D3), #2 (D3 P)): 471 IU/ml and 443 IU/ml
Vitamin D content on storage (pH 3.2, 252 mg/ml water, age 16 weeks, Batch #1 (D3), #2 (D3 P)): 397 IU/ml and 385 IU/ml
Vitamin D content on storage (pH 3.2, 390 mg/ml water, age 0 weeks, Batch #3 (D3), #4 (D3 P)): 430 IU/ml and 425 IU/ml
Vitamin D content on storage (pH 3.2, 390 mg/ml water, age 1 week, Batch #3 (D3), #4 (D3 P)): 404 IU/ml and 405 IU/ml
Vitamin D content on storage (pH 3.2, 390 mg/ml water, age 2 weeks, Batch #3 (D3), #4 (D3 P)): 405 IU/ml and 403 IU/ml
Vitamin D content on storage (pH 3.2, 390 mg/ml water, age 4 weeks, Batch #3 (D3), #4 (D3 P)): 394 IU/ml and 397 IU/ml
Vitamin D content on storage (pH 3.2, 390 mg/ml water, age 8 weeks, Batch #3 (D3), #4 (D3 P)): 384 IU/ml and 381 IU/ml
Vitamin D content on storage (pH 3.2, 390 mg/ml water, age 12 weeks, Batch #3 (D3), #4 (D3 P)): 374 IU/ml and 370 IU/ml
Vitamin D content on storage (pH 3.2, 390 mg/ml water, age 16 weeks, Batch #3 (D3), #4 (D3 P)): 366 IU/ml and 362 IU/ml
Vitamin D content on storage (pH 4.2, 252 mg/ml water, age 0 weeks, Batch #5 (D3), #6 (D3 P)): 408 IU/ml and 405 IU/ml
Vitamin D content on storage (pH 4.2, 252 mg/ml water, age 1 week, Batch #5 (D3), #6 (D3 P)): 391 IU/ml and 386 IU/ml
Vitamin D content on storage (pH 4.2, 252 mg/ml water, age 2 weeks, Batch #5 (D3), #6 (D3 P)): 368 IU/ml and 371 IU/ml
Vitamin D content on storage (pH 4.2, 252 mg/ml water, age 4 weeks, Batch #5 (D3), #6 (D3 P)): 314 IU/ml and 316 IU/ml
Vitamin D content on storage (pH 4.2, 252 mg/ml water, age 8 weeks, Batch #5 (D3), #6 (D3 P)): 234 IU/ml
Vitamin D content on storage (pH 4.2, 252 mg/ml water, age 12 weeks, Batch #5 (D3), #6 (D3 P)): 145 IU/ml and 146 IU/ml
Vitamin D content on storage (pH 4.2, 252 mg/ml water, age 16 weeks, Batch #5 (D3), #6 (D3 P)): 145 IU/ml and 144 IU/ml
Vitamin D content on storage (pH 4.2, 390 mg/ml water, age 0 weeks, Batch #7 (D3), #8 (D3 P)): 414 IU/ml and 418 IU/ml
Vitamin D content on storage (pH 4.2, 390 mg/ml water, age 1 week, Batch #7 (D3), #8 (D3 P)): 397 IU/ml and 395 IU/ml
Vitamin D content on storage (pH 4.2, 390 mg/ml water, age 2 weeks, Batch #7 (D3), #8 (D3 P)): 395 IU/ml and 399 IU/ml
Vitamin D content on storage (pH 4.2, 390 mg/ml water, age 4 weeks, Batch #7 (D3), #8 (D3 P)): 379 IU/ml and 371 IU/ml
Vitamin D content on storage (pH 4.2, 390 mg/ml water, age 8 weeks, Batch #7 (D3), #8 (D3 P)): 353 IU/ml and 347 IU/ml
Vitamin D content on storage (pH 4.2, 390 mg/ml water, age 12 weeks, Batch #7 (D3), #8 (D3 P)): 339 IU/ml and 328 IU/ml
Vitamin D content on storage (pH 4.2, 390 mg/ml water, age 16 weeks, Batch #7 (D3), #8 (D3 P)): 319 IU/ml and 315 IU/ml
Vitamin D content on storage (pH 5.0, 252 mg/ml water, age 0 weeks, Batch #9 (D3), #10 (D3 P)): 426 IU/ml and 424 IU/ml
Vitamin D content on storage (pH 5.0, 252 mg/ml water, age 1 week, Batch #9 (D3), #10 (D3 P)): 394 IU/ml and 397 IU/ml
Vitamin D content on storage (pH 5.0, 252 mg/ml water, age 2 weeks, Batch #9 (D3), #10 (D3 P)): 363 IU/ml
Vitamin D content on storage (pH 5.0, 252 mg/ml water, age 4 weeks, Batch #9 (D3), #10 (D3 P)): 335 IU/ml and 329 IU/ml
Vitamin D content on storage (pH 5.0, 252 mg/ml water, age 8 weeks, Batch #9 (D3), #10 (D3 P)): 244 IU/ml
Vitamin D content on storage (pH 5.0, 252 mg/ml water, age 12 weeks, Batch #9 (D3), #10 (D3 P)): 201 IU/ml and 193 IU/ml
Vitamin D content on storage (pH 5.0, 252 mg/ml water, age 16 weeks, Batch #9 (D3), #10 (D3 P)): 123 IU/ml and 125 IU/ml
Vitamin D content on storage (pH 5.0, 390 mg/ml water (so in the source), age 0 weeks, Batch #11 (D3), #12 (D3 P)): 433 IU/ml and 437 IU/ml
Vitamin D content on storage (pH 5.0, 390 mg/ml water (so in the source), age 1 week, Batch #11 (D3), #12 (D3 P)): 404 IU/ml and 414 IU/ml
Vitamin D content on storage (pH 5.0, 390 mg/ml water (so in the source), age 2 weeks, Batch #11 (D3), #12 (D3 P)): 380 IU/ml and 383 IU/ml
Vitamin D content on storage (pH 5.0, 390 mg/ml water (so in the source), age 4 weeks, Batch #11 (D3), #12 (D3 P)): 364 IU/ml
Vitamin D content on storage (pH 5.0, 390 mg/ml water (so in the source), age 8 weeks, Batch #11 (D3), #12 (D3 P)): 306 IU/ml and 300 IU/ml
Vitamin D content on storage (pH 5.0, 390 mg/ml water (so in the source), age 12 weeks, Batch #11 (D3), #12 (D3 P)): 264 IU/ml and 263 IU/ml
Vitamin D content on storage (pH 5.0, 390 mg/ml water (so in the source), age 16 weeks, Batch #11 (D3), #12 (D3 P)): 188 IU/ml and 186 IU/ml
Vitamin D content on storage (pH 5.0, 390 mg/ml water, age 0 weeks, Batch #13 (D3), #14 (D3 P)): 593 IU/ml and 599 IU/ml
Vitamin D content on storage (pH 5.0, 390 mg/ml water, age 1 week, Batch #13 (D3), #14 (D3 P)): 573 IU/ml and 570 IU/ml
Vitamin D content on storage (pH 5.0, 390 mg/ml water, age 4 weeks, Batch #13 (D3), #14 (D3 P)): 554 IU/ml and 555 IU/ml
Vitamin D content on storage (pH 5.0, 390 mg/ml water, age 8 weeks, Batch #13 (D3), #14 (D3 P)): 510 IU/ml and 500 IU/ml
Vitamin D content on storage (pH 5.0, 390 mg/ml water, age 12 weeks, Batch #13 (D3), #14 (D3 P)): 525 IU/ml and 508 IU/ml
Vitamin D content on storage (pH 5.0, 390 mg/ml water, age 16 weeks, Batch #13 (D3), #14 (D3 P)): 490 IU/ml
Vitamin D content on storage (pH 5.0, 435 mg/ml water, age 0 weeks, Batch #15 (D3), #16 (D3 P)): 431 IU/ml and 433 IU/ml
Vitamin D content on storage (pH 5.0, 435 mg/ml water, age 1 week, Batch #15 (D3), #16 (D3 P)): 418 IU/ml
Vitamin D content on storage (pH 5.0, 435 mg/ml water, age 2 weeks, Batch #15 (D3), #16 (D3 P)): 395 IU/ml and 404 IU/ml
Vitamin D content on storage (pH 5.0, 435 mg/ml water, age 4 weeks, Batch #15 (D3), #16 (D3 P)): 403 IU/ml and 394 IU/ml
Vitamin D content on storage (pH 5.0, 435 mg/ml water, age 8 weeks, Batch #15 (D3), #16 (D3 P)): 364 IU/ml
Vitamin D content on storage (pH 5.0, 435 mg/ml water, age 12 weeks, Batch #15 (D3), #16 (D3 P)): 343 IU/ml and 338 IU/ml
Vitamin D content on storage (pH 5.0, 435 mg/ml water, age 16 weeks, Batch #15 (D3), #16 (D3 P)): 256 IU/ml
